Consider 5 molecules from patent US20230126204A1, “[1,3]DIAZINO[5,4-d]PYRIMIDINES AS HER2 INHIBITORS” (Boehringer Ingelheim International GmbH, priority 2020, published 2023).

What all share (type): cell-based
For assay [1], the target named is T1, HER2 YVMA (Homo sapiens, UniProt P04626, INS775YVMA).
T1 construct: expressed in transfected cells; host or cells: human HEK cells, retroviral transduction, puromycin selection, doxycycline-inducible expression
As to the kind of experiment: pHER2 (ERBB2) YVMA assay (AlphaScreen Surefire, HEK cells). The conditions noted are these: HEK cells expressing HER2 YVMA, phosphorylation at Tyr1221/1222, 4 h. On the procedure:
(§1) For the assay, HEK HER2 YVMA cells were seeded in MEM medium with 10% FBS. 4 hours prior to compound addition, HER2 YVMA expression was induced using 1 μg/ml Doxycycline. […] Subsequently, 60.000 cells/well in 60 μL were added. Cells were incubated with compounds for 4 h at 37° C. […] The mixture was incubated at a temperature of 20-25° C. with shaking (700 rpm) for 20 min. After centrifugation, 4 μL of the lysate were transferred to Proxiplates. […] Plates were shaken for 1 min (1400 rpm) and incubated for 2 h at a temperature of 20-25° C. in the dark.
The results of the assay are provided as IC50 values.
(In general: In Alpha technology, singlet oxygen from a donor bead excites a nearby acceptor bead.)

In assay [2] the target is T2, EGFR wild type (WT) (Homo sapiens, UniProt P00533).
T2 construct: expressed in transfected cells; host or cells: human HEK cells (ATCC CRL-1573), retroviral transduction, puromycin selection
T2 sequence (P00533 25-1210): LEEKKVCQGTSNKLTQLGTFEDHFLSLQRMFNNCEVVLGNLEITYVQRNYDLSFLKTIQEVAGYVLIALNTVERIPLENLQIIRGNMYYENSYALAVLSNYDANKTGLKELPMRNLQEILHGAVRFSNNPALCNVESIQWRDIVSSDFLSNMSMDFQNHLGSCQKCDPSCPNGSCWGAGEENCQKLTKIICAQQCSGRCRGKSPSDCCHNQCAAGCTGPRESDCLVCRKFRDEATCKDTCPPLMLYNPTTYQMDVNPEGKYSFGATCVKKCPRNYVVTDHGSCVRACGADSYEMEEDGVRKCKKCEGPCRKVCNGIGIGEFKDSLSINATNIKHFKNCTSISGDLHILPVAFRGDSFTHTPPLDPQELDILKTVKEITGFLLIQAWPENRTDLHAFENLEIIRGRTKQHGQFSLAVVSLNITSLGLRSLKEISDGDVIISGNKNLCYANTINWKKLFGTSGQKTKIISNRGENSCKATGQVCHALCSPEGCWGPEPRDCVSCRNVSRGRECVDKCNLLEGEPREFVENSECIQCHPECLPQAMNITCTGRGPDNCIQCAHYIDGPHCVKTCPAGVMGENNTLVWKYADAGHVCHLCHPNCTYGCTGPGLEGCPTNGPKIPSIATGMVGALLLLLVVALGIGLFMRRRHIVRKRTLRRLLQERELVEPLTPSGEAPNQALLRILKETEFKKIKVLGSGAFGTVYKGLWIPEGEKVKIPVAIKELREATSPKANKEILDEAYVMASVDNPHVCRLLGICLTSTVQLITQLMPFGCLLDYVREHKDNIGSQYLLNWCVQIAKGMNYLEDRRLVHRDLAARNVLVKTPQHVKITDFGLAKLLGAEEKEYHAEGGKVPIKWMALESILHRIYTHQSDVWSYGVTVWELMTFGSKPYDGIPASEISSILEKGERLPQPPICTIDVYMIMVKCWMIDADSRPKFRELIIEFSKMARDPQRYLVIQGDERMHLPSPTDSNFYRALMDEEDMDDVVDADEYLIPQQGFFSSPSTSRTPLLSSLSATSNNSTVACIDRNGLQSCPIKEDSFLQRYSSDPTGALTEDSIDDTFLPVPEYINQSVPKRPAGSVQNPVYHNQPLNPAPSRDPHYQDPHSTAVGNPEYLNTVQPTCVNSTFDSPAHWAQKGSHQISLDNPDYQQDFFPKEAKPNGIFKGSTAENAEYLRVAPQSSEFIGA
The assay can be described thus: pEGFR assay (AlphaScreen Surefire, HEK cells). The following applies: HEK cells expressing EGFR WT, phosphorylation at Tyr1068, 4 h. The method, then: This assay quantifies the phosphorylation of EGFR at Tyr1068 and was used to measure the inhibitory effect of compounds on the transgenic EGFR wild type (WT) protein expressed in HEK cells.
as §1, with “Transduced cells were selected using puromycin. p-EGFR Tyr1068 was determined using the AlphaScreen Surefire pEGF Receptor (Tyr1068) Assay (PerkinElmer, TGRERS). For” for “For”, “EGFR WT” for “HER2 YVMA”, “FBS.” for “FBS. 4 hours prior to compound addition, HER2 YVMA expression was induced using 1 μg/ml Doxycycline.”
This cellular phospho-EGFR (pEGFR) compound dose-response assay quantifies the phosphorylation of EGFR at Tyr1068 in HEK cells expressing EGFR WT. The results of the assay are provided as IC50 values.

The test system of assay [3] is NCI-H2170 (HER2 wild type) cells. As to the kind of experiment: Tumor cell proliferation assay NCI-H2170 (HER2 wild type). The following applies: Homo sapiens, 72 h, CellTiter-Glo, read-out: GI50 NCI H-2170 HER2 wt amp. On the procedure: (§2) For proliferation assays, NCI-H2170 (HER2 wild type), NCI-H2170 HER2 YVMA and EGFR WT dependent A431 cells were used. NCI-H2170 HER2 YVMA or NCI-H2170 cells were seeded into 96-well plates at 750 cells/60 μL in growth media (RPMI ATCC+10% FBS, +Penicillin/Streptomycin). […] Compounds were added by using a HP D3000 Digital Dispenser one day after plating the cells. All treatments were performed in technical triplicates. Treated cells were incubated for 72 h at 37° C. with 5% CO2. CellTiter-Glo® Luminescent Cell Viability Assay (Promega) was performed and chemoluminescence was measured by using the multilabel Plate Reader VICTOR X4. The raw data were imported into and analyzed with the Boehringer Ingelheim proprietary software MegaLab (curve fitting based on the program PRISM, GraphPad Inc.).

In assay [4] the test system is NCI-H2170 HER2 YVMA cells. The assay can be described thus: Tumor cell proliferation assay NCI-H2170 HER2 YVMA. The following applies: Homo sapiens, 72 h, CellTiter-Glo, read-out: GI50 NCI H-2170 HER2 YVMA.
Text: HER2 YVMA tumor cell line model generation and proliferation assays
Homology-directed genome engineering was employed to insert a 12 nucleotide sequence encoding YVMA into Exon 20 of the genomic HER2 locus in NCI-H2170 cells. […] The DNA template containing the HER2 exon 20 YVMA insertion variant was obtained from GenScript. PCR followed by Sanger sequencing was used to confirm the presence of the 12-nucleotide insertion in HER2 Exon 20 resulting in the YVMA amino acid duplication.
as §2

For assay [5], the system named is EGFR WT dependent A431 cells. As to the kind of experiment: Tumor cell proliferation assay A431 (EGFR WT dependent). The conditions noted are these: Homo sapiens, A-431; 72 h, CellTiter-Glo; read-out: GI50 A431 EGFR wt amp. On the procedure:
as §2
In general terms: ATP-based viability assays read luminescence as a measure of living cells.

The test system of assay [6] is Ba/F3 cells HER2 WT. As to the kind of experiment: Ba/F3 proliferation assay HER2 WT. The following applies: Mus musculus, BaF3; 72 h, CellTiter-Glo. On the procedure: (§3) Ba/F3 cell model generation and proliferation assays
(§4) Plasmids containing HER2 mutants and EGFR WT were obtained from GeneScript. To generate EGFR/HER2-dependent Ba/F3 models, Ba/F3 cells were transduced with retroviruses containing vectors that harbor EGFR WT, HER2 WT or HER2 mutants (YVMA). Platinum-E cells (Cell Biolabs) were used for retrovirus packaging. Retrovirus was added to Ba/F3 cells. To ensure infection, 4 μg/mL polybrene was added and cells were spinfected. Infection efficiency was confirmed by measuring GFP-positive cells using a cell analyzer. Cells with an infection efficiency of 10% to 20% were further cultivated and puromycin selection with 1 μg/mL was initiated. As a control, parental Ba/F3 cells were used to assess the selection status. Selection was considered successful when parental Ba/F3 cells cultures died. To evaluate the transforming potential of HER2 mutations, the growth medium was no longer supplemented with IL-3. Ba/F3 cells harboring the empty vector were used as a control. A switch from IL-3 to EGF was performed for Ba/F3 cells with the EGFR WT known for its dependency on EGF ligand. Approximately ten days before conducting the experiments, puromycin was left out. For proliferation assays (data in table 12 and 14), Ba/F3 cells were seeded into 96-well plates at 5×10^3 cells/100 μL in growth media. Compounds were added by using a HP D3000 Digital Dispenser. All treatments were performed in technical triplicates. Treated cells were incubated for 72 h at 37° C. with 5% CO2. CellTiter-Glo® Luminescent Cell Viability Assay (Promega) was performed and chemoluminescence was measured by using the multilabel Plate Reader VICTOR X4. The raw data were imported into and analyzed with the Boehringer Ingelheim proprietary software MegaLab (curve fitting based on the program PRISM, GraphPad Inc.).

Assay [7] deals with Ba/F3 cells HER2 mutants (YVMA). As to the kind of experiment: Ba/F3 proliferation assay HER2 YVMA. The following applies: Mus musculus, BaF3; 72 h, CellTiter-Glo. The method, then:
as §3, §4

Assay [8] concerns Ba/F3 cells EGFR WT. The assay can be described thus: Ba/F3 proliferation assay EGFR WT (EGF dependent). The following applies: Mus musculus, BaF3, EGF instead of IL-3, 72 h, CellTiter-Glo, read-out: GI50 BAF3 EGF dep. The method, then: as §3, §4

T1 sequence (P04626 with tags, fused parts or gaps INS775YVMA): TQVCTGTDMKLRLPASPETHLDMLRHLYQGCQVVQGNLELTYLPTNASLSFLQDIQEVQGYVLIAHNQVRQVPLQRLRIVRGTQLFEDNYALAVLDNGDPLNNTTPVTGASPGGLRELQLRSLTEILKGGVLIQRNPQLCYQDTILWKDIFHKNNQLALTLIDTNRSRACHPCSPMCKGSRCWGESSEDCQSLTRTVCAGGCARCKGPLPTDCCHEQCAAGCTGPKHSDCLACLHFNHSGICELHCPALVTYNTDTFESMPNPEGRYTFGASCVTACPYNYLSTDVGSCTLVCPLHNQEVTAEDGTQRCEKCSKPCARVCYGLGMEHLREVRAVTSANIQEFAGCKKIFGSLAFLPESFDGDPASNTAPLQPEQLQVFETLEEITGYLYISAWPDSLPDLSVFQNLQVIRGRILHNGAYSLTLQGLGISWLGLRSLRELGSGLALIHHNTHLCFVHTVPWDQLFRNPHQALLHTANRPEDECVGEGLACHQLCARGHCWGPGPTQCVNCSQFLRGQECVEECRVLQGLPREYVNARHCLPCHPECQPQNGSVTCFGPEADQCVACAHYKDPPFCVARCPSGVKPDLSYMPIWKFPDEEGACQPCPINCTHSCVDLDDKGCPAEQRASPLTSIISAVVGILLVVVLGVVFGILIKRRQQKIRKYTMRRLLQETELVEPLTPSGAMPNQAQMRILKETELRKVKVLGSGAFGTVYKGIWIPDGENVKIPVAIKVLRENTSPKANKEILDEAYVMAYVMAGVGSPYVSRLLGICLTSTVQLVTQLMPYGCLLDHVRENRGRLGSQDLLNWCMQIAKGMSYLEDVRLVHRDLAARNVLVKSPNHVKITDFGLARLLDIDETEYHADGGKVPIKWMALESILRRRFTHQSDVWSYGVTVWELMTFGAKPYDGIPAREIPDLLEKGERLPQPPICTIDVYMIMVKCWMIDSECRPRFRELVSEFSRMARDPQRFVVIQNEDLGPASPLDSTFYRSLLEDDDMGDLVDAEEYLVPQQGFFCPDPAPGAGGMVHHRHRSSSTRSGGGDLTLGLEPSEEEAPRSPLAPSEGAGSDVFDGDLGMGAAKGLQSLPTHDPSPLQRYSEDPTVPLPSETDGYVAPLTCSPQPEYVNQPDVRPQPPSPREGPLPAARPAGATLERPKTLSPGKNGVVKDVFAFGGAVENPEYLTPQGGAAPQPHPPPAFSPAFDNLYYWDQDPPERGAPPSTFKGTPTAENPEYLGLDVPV

`C=CC(=O)N1CCN(c2ncc3ncnc(Nc4cc(F)c(Oc5ccc6c(c5)ncn6C)c(Cl)c4)c3n2)CC1` [Compound I-8]: the IC50 – broadly, the concentration needed to halve the response being measured – was found to be 22 nM in assay [1] and 355 nM in assay [2]. Besides, the GI50 (in general, the concentration at which growth is held to half of that of the control) in assay [3] turned out to be 21 nM; in assay [4] it was 172 nM; in assay [5], 3930 nM; in assay [6], 3 nM; in assay [7], 31 nM; in assay [8], 1040 nM.
As for `C=CC(=O)N1CCN(c2ncc3ncnc(Nc4cc(Br)c(Oc5ccc6c(c5)ncn6C)c(Br)c4)c3n2)CC1` [Compound I-9], the IC50 in assay [1] is 34 nM; in assay [2], 485 nM. The GI50 in assay [3] was 46 nM; in assay [4] it was 203 nM; in assay [5], 2510 nM; in assay [6], 5 nM; in assay [7], 23 nM; in assay [8], 1120 nM.
On to `C=CC(=O)N1CCN(c2ncc3ncnc(Nc4cc(Br)c(Oc5ccc6c(c5)ncn6C)cc4Cl)c3n2)CC1` [Compound I-10], for which the results for the IC50 in assay [1] and in assay [2] were 80 nM and 1770 nM, respectively. The GI50 was 52 nM in assay [3]; 216 nM in assay [4]; > 5000 nM in assay [5]; 8 nM in assay [6]; 64 nM in assay [7]; 1630 nM in assay [8].
Take `C=CC(=O)N1CCN(c2ncc3ncnc(Nc4cc(F)c(Oc5ccc6c(c5)ncn6C)c(F)c4)c3n2)CC1` [Compound I-11]: the IC50 in assay [1] amounted to 25 nM; in assay [2], 1170 nM. In addition, the GI50 was 47 nM in assay [3]; 339 nM in assay [4]; > 5000 nM in assay [5]; 3 nM in assay [6]; 40 nM in assay [7]; 644 nM in assay [8].
For `C=CC(=O)N1CCN(c2ncc3ncnc(Nc4ccc(Oc5ccc6c(c5)ncn6C)cc4F)c3n2)CC1` [Compound I-12], the half-maximal inhibitory concentration (IC50) in assay [1] came out at 27 nM; in assay [2] it was 873 nM. Moreover, the GI50 in assay [3] turned out to be 45 nM; in assay [4], 167 nM; in assay [5], 4810 nM; in assay [6], 7 nM; in assay [7], 48 nM; in assay [8], 1180 nM.
